# Earlier results in patent publication US20040170996A1, “Cytotoxic T-Lymphocyte antigen-4 or interleukin-10 polymorphisms as predictors of response to therapeutic intervention” (priority 2001, published 2004).
# Tested on: interleukin-10 production
# Settings: several in vitro studies
smiles,measurement,value
"NC(=O)c1ncn([C@@H]2O[C@H](CO)[C@@H](O)[C@H]2O)n1 [Ribavirin, ribavirin]",Effect on interleukin-10 production,downregulate interleukin-10 production
